Patent US20160318856A1, “Substituted Urea eIF2alpha Kinase Activators” (THE BRIGHAM AND WOMEN'S HOSPITAL, INC., priority 2013, published 2016)
Where two headings read alike, the source gives them in different places.

How the values were obtained:
[1] = tested on: eIF2α phosphorylation (eIF2•GTP•Met-tRNAi ternary complex; HRI activation); test: surrogate dual luciferase eIF2α phosphorylation (ternary complex) assay; type: cell-based, human; details: Homo sapiens; surrogate eIF2α phosphorylation assay, Table 3; read-out: Emax (F/R)
Outline: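 Cell-based dual luciferase reporter: firefly luciferase behind the ATF-4 5′UTR (uORFs) and renilla luciferase behind a uORF-free 5′UTR, read with a dual glow kit. Activity given as firefly/renilla ratio normalised to DMSO wells set at 1, with a rising ratio reflecting reduced ternary complex (e.g., HRI activation).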

[2] = tested on: CRL-2813 human melanoma cancer cells; test: cell proliferation (SRB) assay, CRL-2813; type: cell-based; details: Homo sapiens, CRL2813
Outline: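 Cells exposed 5 days to 0.5–20 μM compound, then TCA-fixed and stained with sulforhodamine B. Growth as 100×[(T−T0)/(C−T0)] from absorbance of treated, control and time-zero cultures; cell death as 100×[(T−T0)/T0] where T is below T0.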

NIH/3T3 fibroblast cells = test: cell proliferation (SRB) assay, NIH/3T3; type: cell-based; details: for IC50: Mus musculus, NIH3T3
Description: (§1) Cells were seeded in 96-well plates and maintained for 5 days in the presence of 0.5 to 20 μM of individual compound, and cell proliferation was measured by the sulforhodamine B (SRB) assay as described previously (see, for example, Palakurthi, S. S. et al. Cancer Research 2000, 60(11), 2919-2925). Briefly, at the end of a 5-day treatment, cells were fixed in 10% cold trichloroacetic acid. Cell number was estimated by measuring the remaining bound dye of sulforhodamine B after washing. The percentage of growth was calculated by using the equation: 100×[(T−T0)/(C−T0)], where T and C represent the absorbance in treated and control cultures at Day 5, and T0 at time zero, respectively. If T is less than T0, cell death has occurred and can be calculated from 100×[(T−T0)/T0].
The experiments were conducted in triplicate, and each experiment was independently performed three times. IC50=effective dose of drug that inhibit cell proliferation by 50%. Data are shown as Mean±S.E.M.
Compounds I-6p, I-17, I-18 and I-20 were tested in NIH/3T3 fibroblast and CRL-2813 melanoma cancer cells in cell proliferation assay. The experiment was conducted in triplicate and each experiment was independently performed three times. Data are shown as Mean IC50±S.E.M.

T47D = test: cell proliferation assay, T47D; type: cell-based; details: Homo sapiens, Breast
Description: as §1

ACHN = test: cell proliferation assay, ACHN; type: cell-based; details: Homo sapiens, Kidney
Description: as §1

Huh-7 = test: cell proliferation assay, Huh-7; type: cell-based; details: Homo sapiens; Huh-7, Liver
Description: as §1

A-549 = test: cell proliferation assay, A-549; type: cell-based; details: Homo sapiens, A549; A-549, Lung
Description: as §1

ASPC-1 = test: cell proliferation assay, ASPC-1; type: cell-based; details: Homo sapiens, ASPC1; ASPC-1, Pancreas; read-out: IC50
Description: as §1
The compounds shown in Table 7 were evaluated using for activation of HRI using the dual luciferase surrogate eIF2α phosphorylation assay (see, for example, Chen, T. et al. Nature Chem Biol 2011, 7, 610-616) and for inhibition of cell proliferation using the SRB assay (see, for example, Palakurthi, S. S. et al. Cancer Res 2000, 60, 2919-2925) as described above.

BAF-3 = test: cell proliferation assay, BAF-3; type: cell-based; details: Mus musculus, BaF3; BAF-3, Leukemia
Description: as §1

CaSki = test: cell proliferation assay, CaSki; type: cell-based; details: Homo sapiens, Ca-Ski, Cervix
Description: as §1

- IC50 ([2]; CRL-2813, Table 8, Mean IC50±S.E.M., read-out: IC50 of compounds): 0.69 ± 0.1 µM
- IC50 ([2]; cell proliferation assay, Table 3, cell line not named, values equal CRL-2813 values of Table 8, read-out: IC50): 0.69 ± 0.1 µM
- IC50 (T47D): 1.2 µM
- IC50 (ACHN): 1.4 µM
- IC50 (Huh-7): 2.1 µM
- IC50 (A-549): 0.9 µM
- IC50 (ASPC-1): 2.4 µM
SMILES: O=C(Nc1cccc(C(F)(F)F)c1)NC1CCC(Oc2ccc(OC(F)(F)F)cc2)CC1 (stereo not shown) [Compound I-17, 1-(4-(4-(trifluoromethoxy)phenoxy)cyclohexyl)-3-(3-(trifluoromethyl)phenyl)urea]
- maximal fold induction [1]: 15.4
- fold higher potency on cancer cells compared to non-transformed cells (NIH/3T3 fibroblast cells; CRL-2813 human melanoma vs NIH-3T3 fibroblast): five-fold higher potency
- IC50 (NIH/3T3 fibroblast cells; NIH/3T3, Table 5, Mean±S.E.M., read-out: IC50): 3.4 ± 0.2 µM
- IC50 (NIH/3T3 fibroblast cells; NIH/3T3, Table 8, Mean IC50±S.E.M., read-out: IC50 of compounds): 3.4 ± 0.2 µM
- IC50 (BAF-3): 0.8 µM
- IC50 (CaSki): 2.8 µM
